# Measurements as given in ChEMBL document CHEMBL3352797, “Design of granulatimide and isogranulatimide analogues as potential Chk1 inhibitors: Study of amino-platforms for their synthesis” (Bioorg Med Chem, 2014).
# pIC50: −log10 of the molar value.
# Target: T1, Serine/threonine-protein kinase Chk1 (Homo sapiens, UniProt O14757)
# T1 sequence (O14757 whole entry): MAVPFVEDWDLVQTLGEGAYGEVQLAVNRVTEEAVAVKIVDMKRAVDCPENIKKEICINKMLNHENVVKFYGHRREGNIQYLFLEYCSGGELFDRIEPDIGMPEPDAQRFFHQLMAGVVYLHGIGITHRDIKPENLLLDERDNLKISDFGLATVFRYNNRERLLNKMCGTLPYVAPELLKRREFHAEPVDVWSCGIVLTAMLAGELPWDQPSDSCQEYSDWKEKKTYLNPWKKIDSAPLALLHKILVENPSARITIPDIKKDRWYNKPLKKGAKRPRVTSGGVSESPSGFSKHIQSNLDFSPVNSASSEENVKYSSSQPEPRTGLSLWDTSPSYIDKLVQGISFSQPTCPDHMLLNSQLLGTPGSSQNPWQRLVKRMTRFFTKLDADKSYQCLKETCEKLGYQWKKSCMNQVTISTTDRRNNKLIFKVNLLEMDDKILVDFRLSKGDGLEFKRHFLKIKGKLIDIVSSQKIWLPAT
# Assay: Inhibition of Chk1 (unknown origin)
smiles,measurement,value
O=C1NC(=O)c2c1c1[nH]cnc1c1[nH]c3ccccc3c21 [GRANULATIMIDE],pIC50,6.60
